Assay results taken from paper PMC9196629, “Synthesis, Characterization and Antitumor Mechanism Investigation of Heterometallic Ru(Ⅱ)-Re(Ⅰ) Complexes” (Frontiers in Chemistry, 2022).

How the values were obtained:
[1] = test system: A549 (human lung cancer cells); test: MTT cytotoxicity assay; format: cell-based; details: 48 h incubation, mean ± SD
Experimental: (§1) The anticancer activities of RuRe-1 and RuRe-2 against four cancer cell lines: HeLa (human cervical cancer cells), HepG2 (human hepatocellular carcinoma), A549 (human lung cancer cells), A549R (cisplatin-resistant A549) and one normal cell line LO2 (human normal liver cells) were determined by 3-(4,5-dimethylthiazole)-2,5-diphenyltetraazolium bromide (MTT) assay, while the mononuclear complexes Ru-1, Ru-2, Re-1 and cisplatin were selected as controls. […] And the in vitro antiproliferative efficacies of the compounds against HeLa cells were in the following order: RuRe-2 > RuRe-1 > Re-1 > cisplatin > Ru-1 > Ru-2. […] The anticancer activity of the mononuclear rhenium complex Re-1 was between 5.6 μM and 8.0 μM, which contributed the most to the antitumor activities of the heteronuclear Ru(II)-Re(Ⅰ) metal complexes.
(§2) Cell lines and culture conditions. HeLa, HepG2, A549, A549R and LO2 cells were purchased from Nanjing KeyGen Biotech., and cultured in DMEM or RPMI 1640 complete medium at 37 ℃ with 5% CO2 atmosphere.
(§3) In vitro cytotoxicity assay. The anti-tumor activity of mononuclear complexes Ru-1, Ru-2, Re-1 and heteronuclear RuRe-1 and RuRe-2 were determined by MTT (5 mg/mL) assay. Cells were placed in 96-well plates and cultured for 24 h at 37 ℃ in a 5% CO2 incubator. After replacing the culture medium with fresh medium containing RuRe-1 or RuRe-2 at the indicated concentration, cells were cultured for 48 h. 20 μL MTT was added to each well 4 h before the end of the incubation. Subsequently, the liquid in the cell wells was poured out and 150 μL/well DMSO was added to dissolve the MTT-formazan crystals. The absorbance of living cells at 570 nm was detected.

[2] = test system: HeLa (human cervical cancer cells); test: MTT cytotoxicity assay; format: cell-based; details: 48 h incubation, mean ± SD
Experimental: as §1, §2, §3

[3] = test system: HepG2 (human hepatocellular carcinoma); test: MTT cytotoxicity assay; format: cell-based; details: 48 h incubation, mean ± SD
Experimental: as §1, §2, §3

[4] = test system: LO2 (human normal liver cells); test: MTT cytotoxicity assay; format: cell-based; details: 48 h incubation, mean ± SD
Experimental: as §1, §2, §3

[5] = test system: A549R (cisplatin-resistant A549); test: MTT cytotoxicity assay; format: cell-based, human; details: MTT, 48 h incubation, mean ± SD
Experimental: as §1, §2, §3

[6] = test system: HeLa, HepG2, A549, A549R cancer cell lines; test: MTT cytotoxicity assay, summary over the cell lines screened; format: cell-based, human; details: 48 h
Experimental: as §1
as §3, with “Subsequently, the liquid in the cell wells was poured out and 150 μL/well DMSO was added to dissolve the MTT-formazan crystals.” left out

Structure (SMILES)	IC50 [1] [µM]	IC50 [2] [µM]	IC50 [3] [µM]	IC50 [4] [µM]	IC50 [5] [µM]	antitumor activity against all cancer cell lines screened [6]
F[P-](F)(F)(F)(F)F.F[P-](F)(F)(F)(F)F.[Ru+2].c1ccc(-c2ccccn2)nc1.c1ccc(-c2ccccn2)nc1.c1cnc2c(c1)c1nc(-c3ccncc3)[nH]c1c1cccnc12 [Ru-1, reference compound]	> 50	39.8 ± 0.6	> 50	> 50	> 50	negligible antitumor activity
N.N.[Cl][Pt][Cl] [Cisplatin, reference compound]	25.9 ± 0.8	19.3 ± 0.5	23.5 ± 2	22.5 ± 2	90.3 ± 0.3	
F[P-](F)(F)(F)(F)F.F[P-](F)(F)(F)(F)F.c1cc2ccc3ccc[n+]4c3c2[n+](c1)[Ru-4]412([n+]3cccc4ccc5ccc[n+]1c5c43)[n+]1cccc3c4nc(-c5ccncc5)[nH]c4c4ccc[n+]2c4c31 [Ru-2]	> 50	43.6 ± 1.2	> 50	> 50	> 50	negligible antitumor activity
